The results in this text go back to patent publication US20250171457A1, “NITROGEN-CONTAINING HETEROCYCLIC COMPOUND HAVING NRF2 ACTIVATION EFFECT” (CHUGAI SEIYAKU KABUSHIKI KAISHA, priority 2022, published 2025).

By EC50 is commonly meant the concentration at which the effect is half-maximal. Higher therefore signals a need for much substance.

This test has as its system Nrf2 transcriptional activity (pARE-Luc reporter) in HepG2 cells. As to the kind of experiment: In vitro Nrf2 transcriptional activity measurement by ARE-dependent reporter assay in HepG2 cell. It is filed as cell-based, human. Particulars: Homo sapiens; HepG2 cells transfected with pARE-Luc, 4 hours at 37° C.; luciferase activity of Example 1-54 or Example 17-23 at 3.75 μM defined as 100%. A digest of the protocol:
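HepG2 cells transfected with pGL4.37 (pARE-Luc), replated onto compound and incubated 4 h at 37° C; luciferase read by Bright-Glo luminescence. Response normalized to 100% set by a reference compound at 3.75 μM; EC50 from dose-response curve.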
A general note: In a reporter assay the amount or activity of a reporter protein is the signal.

The compound `C[C@H]1COCCN1C1CN(c2cc(Cl)c(C(=O)N3COc4c(cccc4-c4cc(N5C6CCC5COC6)c(C(=O)O)cc4F)C3)c(Cl)c2)C1` [Compound 5-14, 4-[3-[2,6-Dichloro-4-[3-[(3S)-3-methylmorpholin-4-yl]azetidin-1-yl]benzoyl]-2,4-dihydro-1,3-benzoxazin-8-yl]-5-fluoro-2-(3-oxa-8-azabicyclo[3.2.1]octan-8-yl)benzoic acid] showed an EC50 of 2.9 nM.

As to `C[C@@H]1COCCN1C1CN(c2cc(Cl)c(C(=O)N3COc4c(cccc4-c4cc(N5C6CCC5COC6)c(C(=O)O)cc4F)C3)c(Cl)c2)C1` [Compound 5-15, 4-[3-[2,6-Dichloro-4-[3-[(3R)-3-methylmorpholin-4-yl]azetidin-1-yl]benzoyl]-2,4-dihydro-1,3-benzoxazin-8-yl]-5-fluoro-2-(3-oxa-8-azabicyclo[3.2.1]octan-8-yl)benzoic acid], the midpoint of the response, the EC50, lay at 3.1 nM.

Compound `COCC1(OC)CN(c2cc(Cl)c(C(=O)N3COc4c(cccc4-c4cc(N5C6CCC5COC6)c(C(=O)O)cc4F)C3)c(Cl)c2)C1` [Compound 6-1, 4-[3-[2,6-Dichloro-4-[3-methoxy-3-(methoxymethyl)azetidin-1-yl]benzoyl]-2,4-dihydro-1,3-benzoxazin-8-yl]-5-fluoro-2-(3-oxa-8-azabicyclo[3.2.1]octan-8-yl)benzoic acid] came in with an EC50 of 2.1 nM.

With `COC1(C(F)(F)F)CN(c2cc(Cl)c(C(=O)N3COc4c(cccc4-c4cc(N5C6CCC5COC6)c(C(=O)O)cc4F)C3)c(Cl)c2)C1` [Compound 6-2, 4-[3-[2,6-Dichloro-4-[3-methoxy-3-(trifluoromethyl)azetidin-1-yl]benzoyl]-2,4-dihydro-1,3-benzoxazin-8-yl]-5-fluoro-2-(3-oxa-8-azabicyclo[3.2.1]octan-8-yl)benzoic acid], the EC50 was 2.8 nM.

Consider `O=C(O)c1cc(F)c(-c2cccc3c2OCN(C(=O)c2c(Cl)cc(N4CC(OCC(F)(F)F)C4)cc2Cl)C3)cc1N1C2CCC1COC2` [Compound 6-3, 4-[3-[2,6-Dichloro-4-[3-(2,2,2-trifluoroethoxy)azetidin-1-yl]benzoyl]-2,4-dihydro-1,3-benzoxazin-8-yl]-5-fluoro-2-(3-oxa-8-azabicyclo[3.2.1]octan-8-yl)benzoic acid], for which the EC50 is 5.7 nM.

In the case of `COCC1(F)CN(c2cc(Cl)c(C(=O)N3COc4c(cccc4-c4cc(N5C6CCC5COC6)c(C(=O)O)cc4F)C3)c(Cl)c2)C1` [Compound 6-4, 4-[3-[2,6-Dichloro-4-[3-fluoro-3-(methoxymethyl)azetidin-1-yl]benzoyl]-2,4-dihydro-1,3-benzoxazin-8-yl]-5-fluoro-2-(3-oxa-8-azabicyclo[3.2.1]octan-8-yl)benzoic acid], the half-maximal effective concentration (EC50) amounted to 2 nM.

For the compound `CCOC1CN(c2cc(Cl)c(C(=O)N3COc4c(cccc4-c4cc(N5C6CCC5COC6)c(C(=O)O)cc4F)C3)c(Cl)c2)C1` [Compound 6-5, 4-[3-[2,6-Dichloro-4-(3-ethoxyazetidin-1-yl)benzoyl]-2,4-dihydro-1,3-benzoxazin-8-yl]-5-fluoro-2-(3-oxa-8-azabicyclo[3.2.1]octan-8-yl)benzoic acid], the midpoint of the response, the EC50, lay at 10 nM.

`CC(C)OC1CN(c2cc(Cl)c(C(=O)N3COc4c(cccc4-c4cc(N5C6CCC5COC6)c(C(=O)O)cc4F)C3)c(Cl)c2)C1` [Compound 6-6, 4-[3-[2,6-Dichloro-4-(3-propan-2-yloxy-azetidin-1-yl)benzoyl]-2,4-dihydro-1,3-benzoxazin-8-yl]-5-fluoro-2-(3-oxa-8-azabicyclo[3.2.1]octan-8-yl)benzoic acid]: the response was half-maximal at 12 nM (EC50).

Compound `O=C(O)c1cc(F)c(-c2cccc3c2OCN(C(=O)c2c(Cl)cc(N4CC(OC5COC5)C4)cc2Cl)C3)cc1N1C2CCC1COC2` [Compound 6-7, 4-[3-[2,6-Dichloro-4-[3-(oxetan-3-yloxy)azetidin-1-yl]benzoyl]-2,4-dihydro-1,3-benzoxazin-8-yl]-5-fluoro-2-(3-oxa-8-azabicyclo[3.2.1]octan-8-yl)benzoic acid] registered an EC50 of 5.7 nM.

Turning to `COCCOC1CN(c2cc(Cl)c(C(=O)N3COc4c(cccc4-c4cc(N5C6CCC5COC6)c(C(=O)O)cc4F)C3)c(Cl)c2)C1` [Compound 6-8, 4-[3-[2,6-Dichloro-4-[3-(2-methoxyethoxy)azetidin-1-yl]benzoyl]-2,4-dihydro-1,3-benzoxazin-8-yl]-5-fluoro-2-(3-oxa-8-azabicyclo[3.2.1]octan-8-yl)benzoic acid], the EC50 was 2.4 nM.

Compound `COCCOC1CC2(C1)CN(c1cc(Cl)c(C(=O)N3COc4c(cccc4-c4cc(N5C6CCC5COC6)c(C(=O)O)cc4F)C3)c(Cl)c1)C2` [Compound 6-9, 4-[3-[2,6-Dichloro-4-[6-(2-methoxyethoxy)-2-azaspiro[3.3]heptan-2-yl]benzoyl]-2,4-dihydro-1,3-benzoxazin-8-yl]-5-fluoro-2-(3-oxa-8-azabicyclo[3.2.1]octan-8-yl)benzoic acid] displayed an EC50 of 2.2 nM. The EC50 values of the last two compounds are within 1.5-fold of each other.

In turn, `O=C(O)c1cc(F)c(-c2cccc3c2OCN(C(=O)c2c(Cl)cc(N4CC5(CC(OC6COC6)C5)C4)cc2Cl)C3)cc1N1C2CCC1COC2` [Compound 6-10, 4-[3-[2,6-Dichloro-4-[6-(oxetan-3-yloxy)-2-azaspiro[3.3]heptan-2-yl]benzoyl]-2,4-dihydro-1,3-benzoxazin-8-yl]-5-fluoro-2-(3-oxa-8-azabicyclo[3.2.1]octan-8-yl)benzoic acid] gave an EC50 of 3.7 nM. Against the preceding compound, the EC50 is about 1.7-fold higher.

As to `O=C(O)c1cc(F)c(-c2cccc3c2OCN(C(=O)c2c(Cl)cc(N4CC5(CN(CC6(F)COC6)C5)C4)cc2Cl)C3)cc1N1C2CCC1COC2` [Compound 7-1, 4-[3-[2,6-Dichloro-4-[6-[(3-fluorooxetan-3-yl)methyl]-2,6-diazaspiro[3.3]heptan-2-yl]benzoyl]-2,4-dihydro-1,3-benzoxazin-8-yl]-5-fluoro-2-(3-oxa-8-azabicyclo[3.2.1]octan-8-yl)benzoic acid], a half-maximal effect (EC50) was put at 4.8 nM. The EC50 values of the last two compounds are within 1.5-fold of each other.

`COCCN1CC2(C1)CN(c1cc(Cl)c(C(=O)N3COc4c(cccc4-c4cc(N5C6CCC5COC6)c(C(=O)O)cc4F)C3)c(Cl)c1)C2` [Compound 7-3, 4-[3-[2,6-Dichloro-4-[6-(2-methoxyethyl)-2,6-diazaspiro[3.3]heptan-2-yl]benzoyl]-2,4-dihydro-1,3-benzoxazin-8-yl]-5-fluoro-2-(3-oxa-8-azabicyclo[3.2.1]octan-8-yl)benzoic acid] yielded an EC50 of 18 nM.

Compound `O=C(O)c1cc(F)c(-c2cccc3c2OCN(C(=O)c2c(Cl)cc(N4CC5(CCN5CC(F)F)C4)cc2Cl)C3)cc1N1C2CCC1COC2` [Compound 7-4, 4-[3-[2,6-Dichloro-4-[1-(2,2-difluoroethyl)-1,6-diazaspiro[3.3]heptan-6-yl]benzoyl]-2,4-dihydro-1,3-benzoxazin-8-yl]-5-fluoro-2-(3-oxa-8-azabicyclo[3.2.1]octan-8-yl)benzoic acid] registered an EC50 of 4.3 nM.

The compound `O=C(O)c1cc(F)c(-c2cccc3c2OCN(C(=O)c2c(Cl)cc(N4CC5(CN(CC(F)(F)F)C5)C4)cc2Cl)C3)cc1N1C2CCC1COC2` [Compound 7-5, 4-[3-[2,6-Dichloro-4-[6-(2,2,2-trifluoroethyl)-2,6-diazaspiro[3.3]heptan-2-yl]benzoyl]-2,4-dihydro-1,3-benzoxazin-8-yl]-5-fluoro-2-(3-oxa-8-azabicyclo[3.2.1]octan-8-yl)benzoic acid] yielded an EC50 of 3.7 nM. This EC50 and that of the compound before are within 1.5-fold of each other.

For `COCCN1CCC12CN(c1cc(Cl)c(C(=O)N3COc4c(cccc4-c4cc(N5C6CCC5COC6)c(C(=O)O)cc4F)C3)c(Cl)c1)C2` [Compound 7-6, 4-[3-[2,6-Dichloro-4-[1-(2-methoxyethyl)-1,6-diazaspiro[3.3]heptan-6-yl]benzoyl]-2,4-dihydro-1,3-benzoxazin-8-yl]-5-fluoro-2-(3-oxa-8-azabicyclo[3.2.1]octan-8-yl)benzoic acid], the EC50 is 5.4 nM.

`CC(C)(C#N)CN1CC2(C1)CN(c1cc(Cl)c(C(=O)N3COc4c(cccc4-c4cc(N5C6CCC5COC6)c(C(=O)O)cc4F)C3)c(Cl)c1)C2` [Compound 7-7, 4-[3-[2,6-Dichloro-4-[6-(2-cyano-2-methylpropyl)-2,6-diazaspiro[3.3]heptan-2-yl]benzoyl]-2,4-dihydro-1,3-benzoxazin-8-yl]-5-fluoro-2-(3-oxa-8-azabicyclo[3.2.1]octan-8-yl)benzoic acid] displayed an EC50 of 3.4 nM. This EC50 is about 1.6-fold lower than that of the compound before.

`COCCN1CCN(c2cc(Cl)c(C(=O)N3COc4c(cccc4-c4cc(N5C6CCC5COC6)c(C(=O)O)cc4F)C3)c(Cl)c2)[C@@H](C)C1` [Compound 7-8, 4-[3-[2,6-Dichloro-4-[(2S)-4-(2-methoxyethyl)-2-methylpiperazin-1-yl]benzoyl]-2,4-dihydro-1,3-benzoxazin-8-yl]-5-fluoro-2-(3-oxa-8-azabicyclo[3.2.1]octan-8-yl)benzoic acid]: the EC50 came to 3.2 nM.

`COCCN1CCN(c2cc(Cl)c(C(=O)N3COc4c(cccc4-c4cc(N5C6CCC5COC6)c(C(=O)O)cc4F)C3)c(Cl)c2)[C@H](C)C1` [Compound 7-9, 4-[3-[2,6-Dichloro-4-[(2R)-4-(2-methoxyethyl)-2-methylpiperazin-1-yl]benzoyl]-2,4-dihydro-1,3-benzoxazin-8-yl]-5-fluoro-2-(3-oxa-8-azabicyclo[3.2.1]octan-8-yl)benzoic acid] yielded an EC50 of 8.4 nM.

Take `COCCN1CC2CC(C1)N2c1cc(Cl)c(C(=O)N2COc3c(cccc3-c3cc(N4C5CCC4COC5)c(C(=O)O)cc3F)C2)c(Cl)c1` [Compound 7-10, 4-[3-[2,6-Dichloro-4-[3-(2-methoxyethyl)-3,6-diazabicyclo[3.1.1]heptan-6-yl]benzoyl]-2,4-dihydro-1,3-benzoxazin-8-yl]-5-fluoro-2-(3-oxa-8-azabicyclo[3.2.1]octan-8-yl)benzoic acid]: the EC50 came to 27 nM.

Take `COCCN1C2CCC1CN(c1cc(Cl)c(C(=O)N3COc4c(cccc4-c4cc(N5C6CCC5COC6)c(C(=O)O)cc4F)C3)c(Cl)c1)C2` [Compound 7-11, 4-[3-[2,6-Dichloro-4-[8-(2-methoxyethyl)-3,8-diazabicyclo[3.2.1]octan-3-yl]benzoyl]-2,4-dihydro-1,3-benzoxazin-8-yl]-5-fluoro-2-(3-oxa-8-azabicyclo[3.2.1]octan-8-yl)benzoic acid]: the EC50 worked out at 3.2 nM. This EC50 is about 8.4-fold lower than that of the compound before.
